Test results reported in US12295952B2, “Methods of treating heart failure with cardiac sarcomere activators” (Amgen Inc., priority 2017, dated 2025).
Several values for one entry are separate records, joined by “and”; a condition that tells them apart may be missing. Identical values can stand only once. Entries after “also recorded” stand apart in the source; their conditions may differ.

How the values were obtained:
[1] = COSMIC-HF: concentrations of omecamtiv mecarbil in plasma; format: in vivo; conditions: for Maximum Concentration / Predose Concentration: mean (SD)
Procedure: (§1) In this randomized, double-blind study, done at 87 sites in 13 countries, patients with stable, symptomatic chronic heart failure and left ventricular ejection fraction 40% or lower were recruited. Patients were randomly assigned equally, via an interactive web response system, to receive 25 mg oral omecamtiv mecarbil twice daily (fixed-dose group), 25 mg twice daily titrated to 50 mg twice daily guided by pharmacokinetics (pharmacokinetic-titration group), or placebo for 20 weeks. The maximum concentration of omecamtiv mecarbil in plasma (primary endpoint) and changes in cardiac function and ventricular diameters were assessed. This trial is registered with ClinicalTrials.gov, number NCT01786512.
All patients received study treatment or placebo for 20 weeks and were followed up at week 24 after randomization. Patients in the pharmacokinetic-titration group received 25 mg omecamtiv mecarbil twice daily for 2 weeks to reach a steady state. If the trough omecamtiv mecarbil concentration in plasma before the morning dose (predose concentration) at 2 weeks was less than 200 ng/mL, the dose was titrated up to 50 mg twice daily at week 8. If the predose concentration was 200 ng/mL or higher, patients continued taking 25 mg twice daily until the end of the study. To access the pharmacokinetics in this population more rigorously than permitted by just trough sampling, intensive pharmacokinetic sampling was done at the end of weeks 2 and 12, over a period of 8 h on each day.
(§2) The primary endpoint was the maximum concentration of omecamtiv mecarbil at the week 2 and 12 visits and the predose concentration at the week 2, 8, 12, 16, and 20 visits. Secondary endpoints were changes from baseline in systolic ejection time, stroke volume, left ventricular end-systolic and end-diastolic diameters, heart rate, and concentration of NT-proBNP in plasma at week 20. Additional prespecified exploratory echocardiographic endpoints included left ventricular fractional shortening, end-systolic and end-diastolic volumes, and ejection fraction. The clinical events committee adjudicated whether admissions to hospital and deaths and all episodes of myocardial ischaemia or infarction reported by investigators or based on an increase of cardiac troponin I concentration in plasma met the criteria for study endpoints.

[2] = tested on: patients with stable, symptomatic chronic heart failure and left ventricular ejection fraction 40% or lower; experiment: COSMIC-HF: changes in cardiac function, ventricular diameters, heart rate and NT-proBNP; format: in vivo, human; conditions: for NT-proBNP concentration in plasma, difference versus placebo: 4 weeks after omecamtiv mecarbil was stopped
Procedure: as §1
(§3) Patients attended study clinics at weeks 2 and 8, after which visits were every 4 weeks until week 24. Transthoracic echocardiograms were done at baseline, week 12, and week 20 and analyzed centrally. Blood samples were obtained at specified visits for analysis in the central laboratory.
as §2
The standard deviations (SDs) for maximum and minimum concentrations of omecamtiv mecarbil in plasma were assumed to be in the range of 40-140 ng/mL.^6-8,11-13 On this basis, it was calculated that 142 patients in the pharmacokinetic-titration group would provide a two-sided 95% CI with half width of 6·6-23·0 ng/mL, assuming that 5% of patients would not have assessable concentrations of omecamtiv mecarbil, which was deemed sufficient for accurate population estimates of these concentrations. Previous work in a similar population of patients had shown that plasma concentrations of omecamtiv mecarbil as low as 100-200 ng/mL had some effect on cardiac function, but that the effect on stroke volume seemed to plateau with concentrations greater than 400 ng/mL, and that plasma concentrations greater than 1200 ng/mL were not clinically tolerated.^7 Thus, it was attempted to achieve a maximum concentration greater than 200 ng/mL and avoid exposures to concentrations greater than 1000 ng/mL. Additionally, with 150 patients in each group and significance set at α=0·05 (two-sided), it was estimated that the statistical power for detecting a treatment effect on the echocardiographic endpoints of systolic ejection time, stroke volume, and left ventricular end-systolic diameter would be more than 90%. Differences between groups for changes in echo cardio graphic variables, heart rate, and NT-proBNP concentrations from baseline were estimated with a repeated measures model fitted separately for each variable and that included the stratification factors of presence or absence of atrial fibrillation or flutter at randomisation, baseline value, treatment group, visit, and treatment group by visit interaction. An unstructured covariance matrix was used to account for the correlation between visits within patients. Least squares mean differences with 95% CIs of the mean relative to placebo are presented unless otherwise indicated. As the study was hypothesis generating, all p values are nominal with no multiplicity adjustment. This study is registered with ClinicalTrials.gov, number NCT01786512.

[3] = tested on: patients with stable, symptomatic chronic heart failure and left ventricular ejection fraction 40% or lower; experiment: COSMIC-HF: safety variables and adverse events; format: in vivo
Procedure: as §1, §3, §2

patients = conditions: previous work, similar population of patients; cited from earlier work
[4] = Week 2, fixed-dose group (25 mg twice daily)
[5] = Week 12, fixed-dose group (25 mg twice daily)
[6] = Week 12, fixed-dose group (25 mg twice daily), listed as OM
[7] = Week 12, fixed-dose group, of 137 patients with measurements
[8] = Week 12, pharmacokinetic-titration group
[9] = Week 12, pharmacokinetic-titration group, listed as OM
[10] = Week 12, pharmacokinetic-titration group, of 127 patients with measurements
[11] = pharmacokinetic-titration group
[12] = week 20, pharmacokinetic-titration group
[13] = pharmacokinetic-titration OM group (n = 146)

SMILES: COC(=O)N1CCN(Cc2cccc(NC(=O)Nc3ccc(C)nc3)c2F)CC1 [omecamtiv mecarbil]
- Maximum Concentration [1, 4]: 212 (70.4) 33.2% ng/mL
- Predose Concentration [1, 4]: 174 (62.2) 35.7% ng/mL
- Predose Concentration ([1]; Week 2, pharmacokinetic-titration group (25 mg titrated to 50 mg twice daily)): 179 (68.8) 38.4% ng/mL
- Maximum Concentration ([1]; Week 2, pharmacokinetic-titration group): 212 (81.0) 38.2% ng/mL
- Predose Concentration ([1]; Week 8, fixed-dose group (25 mg twice daily)): 156 (69.1) 44.2% ng/mL
- Predose Concentration ([1]; Week 8, pharmacokinetic-titration group): 161 (74.4) 46.1% ng/mL
- Maximum Concentration [1, 5]: 200 (SD 71) ng/mL and 200 (71) ng/mL
- Predose Concentration [1, 5]: 165 (SD 68) ng/mL
- Maximum Concentration [1, 6]: 200 (71.1) 35.6% ng/mL
- Predose Concentration [1, 6]: 165 (67.9) 41.3% ng/mL
- Patients with maximum drug concentrations in plasma greater than or equal to 200 ng/mL, % [1, 7]: 46%
- Patients with maximum drug concentrations in plasma greater than or equal to 200 ng/mL, number [1, 7]: 63
- Maximum Concentration [1, 8]: 318 (129) ng/mL
- Predose Concentration [1, 8]: 263 (116) ng/mL
- Maximum Concentration [1, 9]: 318 (129) 40.5% ng/mL
- Predose Concentration [1, 9]: 263 (116) 44.1% ng/mL
- Patients with maximum drug concentrations in plasma greater than or equal to 200 ng/mL, % [1, 10]: 87%
- Patients with maximum drug concentrations in plasma greater than or equal to 200 ng/mL, number [1, 10]: 110
- Predose Concentration ([1]; Week 16, fixed-dose group (25 mg twice daily)): 155 (69.0) 44.6% ng/mL
- Predose Concentration ([1]; Week 16, pharmacokinetic-titration group): 240 (120) 50.0% ng/mL
- Predose Concentration ([1]; Week 20, fixed-dose group (25 mg twice daily)): 149 (71.2) 47.8% ng/mL
- Predose Concentration ([1]; Week 20, pharmacokinetic-titration group): 239 (118) 49.5% ng/mL
- Maximum observed concentration in plasma at any time during the study ([1]; fixed-dose group): 453 ng/mL
- Maximum observed concentration in plasma at any time during the study [1, 11]: 831 ng/mL
- Patients with a maximum concentration greater than 750 ng/mL [1, 11]: one
- NT-proBNP concentration in plasma, difference versus placebo ([2]; fixed-dose group): -1327 pg/mL
- NT-proBNP concentration in plasma, difference versus placebo [2, 11]: -1306 pg/mL
- Systolic ejection times, average increases ([2]; chronic oral administration, across both omecamtiv mecarbil groups): 11 to 25 ms
- NT-proBNP concentration in plasma, least square mean difference versus placebo ([2]; week 20, fixed-dose group): -822 pg/mL
- Stroke volume, least square mean difference versus placebo ([2]; week 20, fixed-dose group): 5 mL
- Systolic ejection time, least square mean difference versus placebo ([2]; week 20, fixed-dose group): 11 ms
- Fractional shortening compared with placebo [2, 12]: increases
- Left ventricular end-diastolic and end-systolic volumes compared with placebo [2, 12]: reductions
- NT-proBNP concentration in plasma, least square mean difference versus placebo [2, 12]: -970 pg/mL
- Stroke volume, least square mean difference versus placebo [2, 12]: 3.6 mL and 4 mL
- Systolic ejection time, least square mean difference versus placebo [2, 12]: 25 ms
- Frequencies of adverse events, serious adverse events and deaths across groups (versus placebo) ([3]; 20 weeks of treatment): did not differ; also recorded: similar
- Adjudicated clinical events: Cardiovascular death, % ([3]; fixed-dose OM group (n = 150)): (1%)
- Adjudicated clinical events: Cardiovascular death, number ([3]; fixed-dose OM group (n = 150)): 1
- Adjudicated clinical events: Death, % ([3]; fixed-dose OM group (n = 150)): (1%)
- Adjudicated clinical events: Death, number ([3]; fixed-dose OM group (n = 150)): 1
- Adjudicated clinical events: Hospital admission: Chest paint†, % ([3]; human, in vivo, 20 weeks): (1%)
- Adjudicated clinical events: Hospital admission: Chest paint†, number ([3]; human, in vivo, 20 weeks): 2
- Adjudicated clinical events: Hospital admission: Myocardial infarction, % ([3]; human, in vivo, 20 weeks): (1%)
- Adjudicated clinical events: Hospital admission: Myocardial infarction, number ([3]; human, in vivo, 20 weeks): 1
- Adjudicated clinical events: Hospital admission: Unstable angina, % ([3]; human, in vivo, 20 weeks): (1%)
- Adjudicated clinical events: Total myocardial infarction**, % ([3]; human, in vivo, 20 weeks): (1%)
- Serious adverse events: Acute cardiac failure, % ([3]; human, in vivo, 20 weeks): (2%)
- Serious adverse events: Acute cardiac failure, number ([3]; human, in vivo, 20 weeks): 3
- Serious adverse events: Cardiac, % ([3]; human, in vivo, 20 weeks): (12%)
- Serious adverse events: Congestive cardiac failure, % ([3]; human, in vivo, 20 weeks): (2%)
- Serious adverse events: Congestive cardiac failure, number ([3]; human, in vivo, 20 weeks): 3
- Serious adverse events: Ventricular tachycardia, % ([3]; human, in vivo, 20 weeks): (1%)
- Adjudicated clinical events: Hospital admission: Myocardial infarction, number ([3]; in vivo): 0
- Cardiac troponin | concentrations: Change to Week 24 ([3]; in vivo): 0 ng/mL
- Share of maximum cardiac troponin I increases from baseline that were less than 0·1 ng/mL ([3]; in vivo): 92%
- Share of maximum cardiac troponin I increases from baseline that were less than 0·2 ng/mL ([3]; in vivo): 97%
- Time for plasma cardiac troponin I to return to baseline levels after discontinuing ([3]; in vivo): ≤ 4 weeks
- Troponin-triggered potential adverse events deemed myocardial ischaemia or myocardial infarction on adjudication ([3]; in vivo): none
- Adjudicated clinical events: Cardiovascular death, % [3, 13]: (1%)
- Adjudicated clinical events: Cardiovascular death, number [3, 13]: 2
- Adjudicated clinical events: Death, % [3, 13]: (2%)
- Adjudicated clinical events: Death, number [3, 13]: 3
- Plasma concentrations at which the effect on stroke volume seemed to plateau (patients): greater than 400 ng/mL
- Plasma concentrations not clinically tolerated (patients): greater than 1200 ng/mL
- Plasma concentrations that had some effect on cardiac function (as low as) (patients): 100 to 200 ng/mL
